From ChEMBL document CHEMBL3132836, “Structure-based drug design of chromone antagonists of the adenosine A2A receptor” (Medchemcomm, 2014)

Assays:
Adenosine receptor A2a = Adenosine receptor A2a (Homo sapiens, UniProt P29274); assay: Displacement of [3H]ZM241385 from human adenosine A2A receptor expressed in HEK293 cells after 1 hr by liquid scintillation counting; type: cell-based
CHO = assay: Selectivity ratio of Ki for human adenosine A1 receptor expressed in CHO cells to Ki for human adenosine A2A receptor expressed in HEK293 cells; type: cell-based
[1] = Half life in Sprague-Dawley rat liver microsomes at 3 uM by LC-MS analysis; type: ADME
Adenosine receptor A2b = biological target: T1, Adenosine receptor A2b (Homo sapiens, UniProt P29275); assay: Displacement of [3H]MRS1754 from adenosine A2B receptor (unknown origin) expressed in HEK293 cells after 90 mins; type: cell-based
T1 sequence (P29275 whole entry): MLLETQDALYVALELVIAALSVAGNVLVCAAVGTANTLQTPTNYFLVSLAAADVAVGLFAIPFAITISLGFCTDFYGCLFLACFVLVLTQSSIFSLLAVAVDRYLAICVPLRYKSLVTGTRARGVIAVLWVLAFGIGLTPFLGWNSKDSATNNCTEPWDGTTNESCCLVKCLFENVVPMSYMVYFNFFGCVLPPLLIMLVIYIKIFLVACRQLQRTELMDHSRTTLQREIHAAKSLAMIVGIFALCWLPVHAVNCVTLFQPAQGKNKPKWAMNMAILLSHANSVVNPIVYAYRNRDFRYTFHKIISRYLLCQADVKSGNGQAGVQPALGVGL

Adenosine receptor A3 = biological target: T2, Adenosine receptor A3 (Homo sapiens, UniProt P0DMS8); assay: Displacement of [125I]AB-MECA from adenosine A3 receptor (unknown origin) expressed in CHO-K1 cells after 60 mins; type: cell-based
T2 sequence (P0DMS8 whole entry): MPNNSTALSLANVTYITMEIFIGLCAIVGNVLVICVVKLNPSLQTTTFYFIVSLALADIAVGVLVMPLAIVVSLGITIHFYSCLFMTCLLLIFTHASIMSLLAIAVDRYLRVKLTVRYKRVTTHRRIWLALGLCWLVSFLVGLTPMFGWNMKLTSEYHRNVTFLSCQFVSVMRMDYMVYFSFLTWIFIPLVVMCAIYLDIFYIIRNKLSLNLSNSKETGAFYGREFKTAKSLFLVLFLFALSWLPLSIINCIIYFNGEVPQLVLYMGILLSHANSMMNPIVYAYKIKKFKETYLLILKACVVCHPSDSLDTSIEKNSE

Adenosine receptor A1 = biological target: T3, Adenosine receptor A1 (Homo sapiens, UniProt P30542); assay: Displacement of [3H]DPCPX from human adenosine A1 receptor expressed in CHO cells after 1 hr by liquid scintillation counting; type: cell-based
T3 sequence (P30542 whole entry): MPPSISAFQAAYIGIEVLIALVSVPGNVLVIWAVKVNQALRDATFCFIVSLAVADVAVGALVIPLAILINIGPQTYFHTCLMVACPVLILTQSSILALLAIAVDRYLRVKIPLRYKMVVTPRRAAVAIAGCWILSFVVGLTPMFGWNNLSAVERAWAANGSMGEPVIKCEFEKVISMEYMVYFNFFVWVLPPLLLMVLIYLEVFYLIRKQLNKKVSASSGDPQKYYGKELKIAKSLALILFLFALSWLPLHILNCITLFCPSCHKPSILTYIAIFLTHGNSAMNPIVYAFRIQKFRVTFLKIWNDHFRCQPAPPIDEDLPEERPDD

Chain of Adenosine receptor A2a (P29274 whole entry): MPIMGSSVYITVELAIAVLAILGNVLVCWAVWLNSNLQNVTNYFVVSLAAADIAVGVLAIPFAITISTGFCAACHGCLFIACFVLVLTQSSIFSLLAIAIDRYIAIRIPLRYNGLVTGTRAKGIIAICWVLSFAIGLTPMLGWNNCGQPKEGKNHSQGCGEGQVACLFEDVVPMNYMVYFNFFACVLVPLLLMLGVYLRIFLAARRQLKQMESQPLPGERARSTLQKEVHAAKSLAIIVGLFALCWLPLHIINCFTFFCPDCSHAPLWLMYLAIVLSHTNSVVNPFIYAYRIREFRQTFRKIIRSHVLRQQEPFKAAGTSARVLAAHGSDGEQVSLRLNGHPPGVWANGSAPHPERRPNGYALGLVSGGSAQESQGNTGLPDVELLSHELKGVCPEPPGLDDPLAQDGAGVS

SMILES	Ki (Adenosine receptor A2a; read-out: pKi (converted))	other results
CCCCCc1cc2c(=O)c(-c3nc(C)cs3)coc2cc1O	20 nM	Ratio Ki (CHO): > 100
Cc1csc(-c2coc3cc(OCCN(C)C)cc(C)c3c2=O)n1	1580 nM	–
Cc1csc(-c2coc3cccc(C)c3c2=O)n1	316 nM	half-life at 3 µM [1]: 14 min
Cc1csc(-c2coc3cc(O)ccc3c2=O)n1	2000 nM	–
CCc1cc2c(=O)c(-c3cscn3)coc2cc1O	1580 nM	–
Cc1csc(-c2c(C)oc3cc(O)ccc3c2=O)n1	7940 nM	–
CC(=O)Oc1cc(C)c2c(=O)c(-c3nc(C)cs3)coc2c1	31.6 nM	Ratio Ki (CHO): 13
CCCc1cc2c(=O)c(-c3nc(C)cs3)coc2cc1O	25.1 nM	–
CCOC(=O)COc1cc(C)c2c(=O)c(-c3nc(C)cs3)coc2c1	100 nM	–
CCc1cc2c(=O)c(-c3csc(C)n3)coc2cc1O	50.1 nM	–
CCOc1cc2occ(-c3nc(C)cs3)c(=O)c2cc1CC	39.8 nM	IC50 (Adenosine receptor A2b): > 10 µM; Ki (Adenosine receptor A2b): > 10 µM; IC50 (Adenosine receptor A3): > 10 µM; Ki (Adenosine receptor A3): > 10 µM; Ki (Adenosine receptor A1): 5 µM; Ki (Adenosine receptor A2a; read-out: Ki): 40 nM; half-life at 3 µM [1]: 16 min
Cc1csc(-c2coc3cc(OCC4CC4)cc(C)c3c2=O)n1	79.4 nM	half-life at 3 µM [1]: 18 min; Ratio Ki (CHO): > 100
CCc1cc2c(=O)c(-c3nc(C)cs3)coc2cc1O	79.4 nM	Ratio Ki (CHO): > 100
CCCc1cc2c(=O)c(-c3csc(C)n3)coc2cc1O	31.6 nM	–
C#CCCCOc1cc(C)c2c(=O)c(-c3nc(C)cs3)coc2c1	25.1 nM	–
Cc1csc(-c2coc3cc(OCC(=O)O)cc(C)c3c2=O)n1	2000 nM	–
